Measured values reported in PubChem BioAssay AID1963831 (Molecular Pharmacology Branch, DTP, NCI, 2024).

Test system: 889142-216-R-J1-PDC complex spheroid viability
Assay: Anticancer human tumor 889142-216-R-J1-PDC patient-derived bladder carcinoma cell line growth inhibition [POLQ]
Conditions: for IC50: curve of first compound; for viability, T/C: stronger effect = lower value; active = viability on the fitted dose curve at most 10% of control; inactive = the rest
Procedure, shortened: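 Growth inhibition in 3D: complex spheroids (tumor PDC, HUVEC, MSC) treated with POLQ inhibitor combinations; where Cmax unknown, highest tested concentration 10 microM, except SN-38 at 1 microM.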

[1] = second compound 0.0316 µM, first compound 0.0316 µM
[2] = second compound 0.0316 µM, first compound 0.1 µM
[3] = second compound 0.0316 µM, first compound 0.316 µM
[4] = second compound 0.0316 µM, first compound 1 µM
[5] = second compound 0.0316 µM, first compound 3.16 µM
[6] = second compound 0.0316 µM, first compound 10 µM
[7] = second compound 0.1 µM, first compound 0.0316 µM
[8] = second compound 0.1 µM, first compound 0.1 µM
[9] = second compound 0.1 µM, first compound 0.316 µM
[10] = second compound 0.1 µM, first compound 1 µM
[11] = second compound 0.1 µM, first compound 3.16 µM
[12] = second compound 0.1 µM, first compound 10 µM
[13] = second compound 0.316 µM, first compound 0.0316 µM
[14] = second compound 0.316 µM, first compound 0.1 µM
[15] = second compound 0.316 µM, first compound 0.316 µM
[16] = second compound 0.316 µM, first compound 1 µM
[17] = second compound 0.316 µM, first compound 3.16 µM
[18] = second compound 0.316 µM, first compound 10 µM
[19] = second compound 1 µM, first compound 0.0316 µM
[20] = second compound 1 µM, first compound 0.1 µM
[21] = second compound 1 µM, first compound 0.316 µM
[22] = second compound 1 µM, first compound 1 µM
[23] = second compound 1 µM, first compound 3.16 µM
[24] = second compound 1 µM, first compound 10 µM
[25] = second compound 3.16 µM, first compound 0.0316 µM
[26] = second compound 3.16 µM, first compound 0.1 µM
[27] = second compound 3.16 µM, first compound 0.316 µM
[28] = second compound 3.16 µM, first compound 1 µM
[29] = second compound 3.16 µM, first compound 3.16 µM
[30] = second compound 3.16 µM, first compound 10 µM
[31] = second compound 10 µM, first compound 0.0316 µM
[32] = second compound 10 µM, first compound 0.1 µM
[33] = second compound 10 µM, first compound 0.316 µM
[34] = second compound 10 µM, first compound 1 µM
[35] = second compound 10 µM, first compound 3.16 µM
[36] = second compound 10 µM, first compound 10 µM
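Note: spheroids exposed to compounds for seven days.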
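Throughout, for viability, T/C: 100% = DMSO vehicle control viability.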

C#Cc1c(F)ccc2cc(O)cc(-c3ncc4c(N5CC6CCC(C5)N6)nc(OCC56CCCN5CC(F)C6)nc4c3F)c12 (stereo not drawn) + Nc1ccc(C#CCN(C(=O)Cc2ncc(C(F)(F)F)cc2C(F)(F)F)c2ccc(F)cc2)nn1
7.63 µM: IC50 (second compound 0.1 µM)
7.61 µM: IC50 (second compound 10 µM)
inactive: viability, T/C [1] 101% | viability, T/C [2] 102% | viability, T/C [3] 75% | viability, T/C [4] 74.6% | viability, T/C [5] 84.8% | viability, T/C [6] 43.9% | viability, T/C [7] 103% | viability, T/C [8] 119% | viability, T/C [9] 85.3% | viability, T/C [10] 79% | viability, T/C [11] 86.6% | viability, T/C [12] 38.9% | viability, T/C [13] 115% | viability, T/C [14] 99.4% | viability, T/C [15] 73.5% | viability, T/C [16] 116% | viability, T/C [17] 69.8% | viability, T/C [18] 49.7% | viability, T/C [19] 115% | viability, T/C [20] 102% | viability, T/C [21] 95.8% | viability, T/C [22] 76.7% | viability, T/C [23] 65.3% | viability, T/C [24] 52.5% | viability, T/C [25] 94% | viability, T/C [26] 98.1% | viability, T/C [27] 90.3% | viability, T/C [28] 131% | viability, T/C [29] 70.3% | viability, T/C [30] 63.8% | viability, T/C [31] 120% | viability, T/C [32] 81.6% | viability, T/C [33] 108% | viability, T/C [34] 75.5% | viability, T/C [35] 90.5% | viability, T/C [36] 38.8%
> 10 µM: IC50 (second compound 0.0316 µM) | IC50 (second compound 0.316 µM) | IC50 (second compound 1 µM) | IC50 (second compound 3.16 µM)

CCc1cc2c(N3CCc4c(cc(Cn5ccnc5)cc4-c4cn(C)nc4C(F)(F)F)C3=O)cc(C)nc2c(OC)n1 + Nc1ccc(C#CCN(C(=O)Cc2ncc(C(F)(F)F)cc2C(F)(F)F)c2ccc(F)cc2)nn1
inactive: viability, T/C [1] 98.2% | viability, T/C [2] 96.9% | viability, T/C [3] 109% | viability, T/C [4] 126% | viability, T/C [5] 108% | viability, T/C [6] 80.2% | viability, T/C [7] 123% | viability, T/C [8] 97.6% | viability, T/C [9] 126% | viability, T/C [10] 133% | viability, T/C [11] 113% | viability, T/C [12] 79.5% | viability, T/C [13] 104% | viability, T/C [14] 119% | viability, T/C [15] 123% | viability, T/C [16] 135% | viability, T/C [17] 126% | viability, T/C [18] 75.2% | viability, T/C [19] 125% | viability, T/C [20] 116% | viability, T/C [21] 132% | viability, T/C [22] 135% | viability, T/C [23] 109% | viability, T/C [24] 67.9% | viability, T/C [25] 109% | viability, T/C [26] 125% | viability, T/C [27] 119% | viability, T/C [28] 114% | viability, T/C [29] 116% | viability, T/C [30] 97.3% | viability, T/C [31] 97.8% | viability, T/C [32] 126% | viability, T/C [33] 112% | viability, T/C [34] 124% | viability, T/C [35] 104% | viability, T/C [36] 93.4%
> 10 µM: IC50 (second compound 0.0316 µM) | IC50 (second compound 0.1 µM) | IC50 (second compound 0.316 µM) | IC50 (second compound 1 µM) | IC50 (second compound 3.16 µM) | IC50 (second compound 10 µM)

CCc1cc2c(N3CCc4c(cc(Cn5ccnc5)cc4-c4cn(C)nc4C(F)(F)F)C3=O)ccnc2c(OC)n1 + Nc1ccc(C#CCN(C(=O)Cc2ncc(C(F)(F)F)cc2C(F)(F)F)c2ccc(F)cc2)nn1
inactive: viability, T/C [1] 98% | viability, T/C [2] 105% | viability, T/C [3] 116% | viability, T/C [4] 137% | viability, T/C [5] 103% | viability, T/C [6] 80.2% | viability, T/C [7] 115% | viability, T/C [8] 117% | viability, T/C [9] 104% | viability, T/C [10] 125% | viability, T/C [11] 99.2% | viability, T/C [12] 117% | viability, T/C [13] 98.8% | viability, T/C [14] 107% | viability, T/C [15] 116% | viability, T/C [16] 124% | viability, T/C [17] 127% | viability, T/C [18] 82.1% | viability, T/C [19] 103% | viability, T/C [20] 93.7% | viability, T/C [21] 125% | viability, T/C [22] 123% | viability, T/C [23] 99% | viability, T/C [24] 105% | viability, T/C [25] 105% | viability, T/C [26] 104% | viability, T/C [27] 120% | viability, T/C [28] 124% | viability, T/C [29] 111% | viability, T/C [30] 105% | viability, T/C [31] 118% | viability, T/C [32] 101% | viability, T/C [33] 129% | viability, T/C [34] 135% | viability, T/C [35] 120% | viability, T/C [36] 92.8%
> 10 µM: IC50 (second compound 0.0316 µM) | IC50 (second compound 0.1 µM) | IC50 (second compound 0.316 µM) | IC50 (second compound 1 µM) | IC50 (second compound 3.16 µM) | IC50 (second compound 10 µM)

COc1cc2cc(C(=O)CCC(=O)O)sc2cc1OC + Nc1ccc(C#CCN(C(=O)Cc2ncc(C(F)(F)F)cc2C(F)(F)F)c2ccc(F)cc2)nn1
> 10 µM: IC50 (second compound 0.0316 µM) | IC50 (second compound 0.1 µM) | IC50 (second compound 0.316 µM) | IC50 (second compound 1 µM) | IC50 (second compound 3.16 µM) | IC50 (second compound 10 µM)
inactive: viability, T/C [1] 88.3% | viability, T/C [2] 108% | viability, T/C [3] 96.6% | viability, T/C [4] 92.9% | viability, T/C [5] 108% | viability, T/C [6] 61.9% | viability, T/C [7] 108% | viability, T/C [8] 89% | viability, T/C [9] 82.7% | viability, T/C [10] 115% | viability, T/C [11] 81.9% | viability, T/C [12] 79.2% | viability, T/C [13] 91.7% | viability, T/C [14] 86.5% | viability, T/C [15] 94% | viability, T/C [16] 117% | viability, T/C [17] 78.2% | viability, T/C [18] 78.5% | viability, T/C [19] 82.5% | viability, T/C [20] 96.3% | viability, T/C [21] 93% | viability, T/C [22] 89.5% | viability, T/C [23] 93.3% | viability, T/C [24] 68.2% | viability, T/C [25] 108% | viability, T/C [26] 83.6% | viability, T/C [27] 91.1% | viability, T/C [28] 71.7% | viability, T/C [29] 87.2% | viability, T/C [30] 76.8% | viability, T/C [31] 90.5% | viability, T/C [32] 79% | viability, T/C [33] 93.7% | viability, T/C [34] 101% | viability, T/C [35] 100% | viability, T/C [36] 89.4%
